From PubChem BioAssay (NCI)
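Results reflect a 48-hour exposure of cells in 96-well plates to compound at five concentrations. The concentration for 50% growth inhibition is given as GI50. Definition used: TGI = concentration required for complete inhibition of growth.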

Key:
Test in all cases: growth of human tumour cells (NCI), 48 h
[1] = tested on: 786-0 renal
[2] = tested on: A498 renal
[3] = tested on: A549 NSCLC
[4] = tested on: ACHN renal
[5] = tested on: BT-549 breast
[6] = tested on: CAKI-1 renal
[7] = tested on: CCRF-CEM leukemia
[8] = tested on: COLO 205 colon
[9] = tested on: DU-145 prostate
[10] = tested on: EKVX NSCLC
[11] = tested on: HCC-2998 colon
[12] = tested on: HCT-116 colon
[13] = tested on: HL-60(TB) leukemia
[14] = tested on: HOP-62 NSCLC
[15] = tested on: HOP-92 NSCLC
[16] = tested on: HS 578T breast
[17] = tested on: HT29 colon
[18] = tested on: IGROV1 ovarian
[19] = tested on: K-562 leukemia
[20] = tested on: KM12 colon
[21] = tested on: LOX IMVI melanoma
[22] = tested on: M14 melanoma
[23] = tested on: MALME-3M melanoma
[24] = tested on: MDA-MB-231 breast
[25] = tested on: MDA-MB-435
[26] = tested on: MOLT-4 leukemia
[27] = tested on: NCI-H226 lung
[28] = tested on: NCI-H23 lung
[29] = tested on: NCI-H460 lung
[30] = tested on: NCI-H522 lung
[31] = tested on: NCI/ADR-RES ovarian
[32] = tested on: OVCAR-3 ovarian
[33] = tested on: OVCAR-4 ovarian
[34] = tested on: OVCAR-5 ovarian
[35] = tested on: OVCAR-8 ovarian
[36] = tested on: PC-3 prostate
[37] = tested on: RPMI-8226 leukemia
[38] = tested on: RXF 393 renal
[39] = tested on: SF-268 CNS
[40] = tested on: SF-295 CNS
[41] = tested on: SF-539 CNS
[42] = tested on: SK-MEL-2 melanoma
[43] = tested on: SK-MEL-28 melanoma
[44] = tested on: SK-MEL-5 melanoma
[45] = tested on: SK-OV-3 ovarian
[46] = tested on: SNB-19 CNS
[47] = tested on: SNB-75 CNS
[48] = tested on: SR leukemia
[49] = tested on: SW-620 colon
[50] = tested on: T-47D breast
[51] = tested on: TK-10 renal
[52] = tested on: U251 CNS
[53] = tested on: UACC-257 melanoma
[54] = tested on: UACC-62 melanoma
[55] = tested on: UO-31 renal
[56] = tested on: HCT-15 colon
[57] = tested on: SN12C renal

O=C(CCl)N1c2ccccc2Oc2ccc3ccccc3c21
GI50 [1]: 2050 nM
TGI [1]: 3.56 µM
GI50 [2]: 2440 nM
TGI [2]: 6.97 µM
GI50 [3]: 1900 nM
TGI [3]: 3.81 µM
GI50 [4]: 1370 nM
TGI [4]: 2820 nM
GI50 [5]: 1790 nM
TGI [5]: 3.56 µM
GI50 [6]: 1020 nM
TGI [6]: 3.8 µM
GI50 [7]: 163 nM
TGI [7]: 3.39 µM
GI50 [8]: 894 nM
TGI [8]: 2.35 µM
GI50 [9]: 1170 nM
TGI [9]: 2530 nM
GI50 [10]: 2200 nM
TGI [10]: 5.9 µM
GI50 [11]: 1860 nM
TGI [11]: 3.59 µM
GI50 [12]: 358 nM
TGI [12]: 1290 nM
GI50 [13]: 1450 nM
TGI [13]: 4.86 µM
GI50 [14]: 1810 nM
TGI [14]: 3.25 µM
GI50 [15]: 1590 nM
TGI [15]: 3.31 µM
GI50 [16]: 2290 nM
GI50 [17]: 432 nM
TGI [17]: 1.51 µM
GI50 [18]: 830 nM
TGI [18]: 2.53 µM
GI50 [19]: 310 nM
TGI [19]: 1420 nM
GI50 [20]: 1800 nM
TGI [20]: 3.3 µM
GI50 [21]: 347 nM
TGI [21]: 1410 nM
GI50 [22]: 1140 nM
TGI [22]: 2560 nM
GI50 [23]: 1330 nM
TGI [23]: 2.91 µM
GI50 [24]: 1280 nM
TGI [24]: 2810 nM
GI50 [25]: 577 nM
TGI [25]: 1880 nM
GI50 [26]: 339 nM
TGI [26]: 1950 nM
GI50 [27]: 1.63 µM
TGI [27]: 3.26 µM
GI50 [28]: 1310 nM
TGI [28]: 3.08 µM
GI50 [29]: 2000 nM
TGI [29]: 4.11 µM
GI50 [30]: 614 nM
TGI [30]: 1900 nM
GI50 [31]: 2360 nM
TGI [31]: > 24 µM
GI50 [32]: 1230 nM
TGI [32]: 2640 nM
GI50 [33]: 1440 nM
TGI [33]: 3.34 µM
GI50 [34]: 1810 nM
TGI [34]: 3.59 µM
GI50 [35]: 780 nM
TGI [35]: 2.28 µM
GI50 [36]: 1720 nM
TGI [36]: 3.62 µM
GI50 [37]: 768 nM
TGI [37]: 3120 nM
GI50 [38]: 1730 nM
TGI [38]: 3.17 µM
GI50 [39]: 1520 nM
TGI [39]: 2.94 µM
GI50 [40]: 2410 nM
TGI [40]: 5.92 µM
GI50 [41]: 1590 nM
TGI [41]: 3.1 µM
GI50 [42]: 1140 nM
TGI [42]: 2.67 µM
GI50 [43]: 1830 nM
TGI [43]: 3.34 µM
GI50 [44]: 1590 nM
TGI [44]: 2.98 µM
GI50 [45]: 2510 nM
TGI [45]: 6.09 µM
GI50 [46]: 1860 nM
TGI [46]: 3.44 µM
GI50 [47]: 1470 nM
TGI [47]: 2.82 µM
GI50 [48]: 305 nM
TGI [48]: 1060 nM
GI50 [49]: 373 nM
TGI [49]: 1480 nM
GI50 [50]: 1690 nM
TGI [50]: 4.15 µM
GI50 [51]: 769 nM
TGI [51]: 1700 nM
GI50 [52]: 1360 nM
TGI [52]: 2.7 µM
GI50 [53]: 1530 nM
TGI [53]: 3.16 µM
GI50 [54]: 1570 nM
TGI [54]: 3 µM
GI50 [55]: 1170 nM
TGI [55]: 2530 nM

O=C1/C(=C/c2ccc([N+](=O)[O-])cc2)COc2ccc(O)c(O)c21
GI50 [1]: 1350 nM
TGI [1]: 3.59 µM
GI50 [2]: 1710 nM
TGI [2]: 3.91 µM
GI50 [3]: 2040 nM
TGI [3]: 5.17 µM
GI50 [4]: 1500 nM
TGI [4]: 2920 nM
GI50 [5]: 1440 nM
TGI [5]: 3.19 µM
GI50 [6]: 1270 nM
TGI [6]: 2.54 µM
GI50 [8]: 1470 nM
TGI [8]: 3.69 µM
GI50 [9]: 1460 nM
TGI [9]: 2850 nM
GI50 [10]: 1770 nM
TGI [10]: 3.72 µM
GI50 [11]: 1760 nM
TGI [11]: 3.38 µM
GI50 [12]: 1570 nM
TGI [12]: 3350 nM
GI50 [56]: 606 nM
TGI [56]: 3.55 µM
GI50 [13]: 896 nM
TGI [13]: 6.45 µM
GI50 [14]: 2570 nM
TGI [14]: 6.34 µM
GI50 [15]: 1990 nM
TGI [15]: 4.96 µM
GI50 [16]: 1940 nM
TGI [16]: 4.75 µM
GI50 [17]: 2200 nM
TGI [17]: 5.85 µM
GI50 [18]: 1250 nM
TGI [18]: 3.55 µM
GI50 [19]: 547 nM
TGI [19]: > 100000 nM
GI50 [20]: 1580 nM
TGI [20]: 3.47 µM
GI50 [21]: 1050 nM
TGI [21]: 2290 nM
GI50 [22]: 1540 nM
TGI [22]: 3300 nM
GI50 [23]: 1840 nM
TGI [23]: 5.22 µM
GI50 [24]: 1330 nM
TGI [24]: 2810 nM
GI50 [25]: 1580 nM
TGI [25]: 3080 nM
GI50 [26]: 1290 nM
TGI [26]: > 100000 nM
GI50 [27]: 11 µM
TGI [27]: 45.8 µM
GI50 [28]: 1770 nM
TGI [28]: 3.74 µM
GI50 [29]: 1740 nM
TGI [29]: 3.84 µM
GI50 [30]: 204 nM
TGI [30]: 474 nM
GI50 [31]: 2660 nM
TGI [31]: 9.33 µM
GI50 [32]: 790 nM
TGI [32]: 2140 nM
GI50 [33]: 1440 nM
TGI [33]: 2.78 µM
GI50 [34]: 1810 nM
TGI [34]: 3.74 µM
GI50 [35]: 2290 nM
TGI [35]: 9.93 µM
GI50 [36]: 1590 nM
TGI [36]: 4.53 µM
GI50 [37]: 316 nM
TGI [37]: 1010 nM
GI50 [39]: 1510 nM
TGI [39]: 3.15 µM
GI50 [40]: 2210 nM
TGI [40]: 5.17 µM
GI50 [41]: 1700 nM
TGI [41]: 3.33 µM
GI50 [42]: 1870 nM
TGI [42]: 4.37 µM
GI50 [43]: 2100 nM
TGI [43]: 4.61 µM
GI50 [44]: 2120 nM
TGI [44]: 4.61 µM
GI50 [45]: 2980 nM
TGI [45]: 9.62 µM
GI50 [57]: 1540 nM
TGI [57]: 4.19 µM
GI50 [46]: 1560 nM
TGI [46]: 3.1 µM
GI50 [47]: 1550 nM
TGI [47]: 3.82 µM
GI50 [48]: 463 nM
TGI [48]: > 100000 nM
GI50 [49]: 1310 nM
TGI [49]: 3070 nM
GI50 [50]: 1320 nM
TGI [50]: 3.65 µM
GI50 [51]: 1680 nM
TGI [51]: 3990 nM
GI50 [52]: 785 nM
TGI [52]: 3.55 µM
GI50 [53]: 1890 nM
TGI [53]: 4.32 µM
GI50 [54]: 1570 nM
TGI [54]: 3.35 µM
GI50 [55]: 696 nM
TGI [55]: 2230 nM
